Here are results for 26 compounds from patent US20100331305A1, “OXO-HETEROCYCLE FUSED PYRIMIDINE COMPOUNDS, COMPOSITIONS AND METHODS OF USE” (Genentech, Inc., priority 2009, published 2010).

Experiment [1] deals with mTOR enzyme (mTOR(1360-2549)+GBL) (Homo sapiens, UniProt P42345). Briefly: In vitro mTOR kinase assay (TR-FRET). The class given is biochemical. To be noted: 0.25 nM mTOR+GBL, 8 uM ATP; values tied to compounds by order of Table 1; 'x or y' = two alternative values for separated diastereomers of unassigned stereochemistry; read-out: activity level (Ki) in the mTOR kinase assay. The source says:
a. In Vitro mTOR Kinase Assay
The reaction is stopped by an addition of a Terbium-labeled phospho-specific antibody, e.g., Tb-labeled anti-p4E-BP1 T37/T46, (Invitrogen, product #PR8835A), EDTA, and TR-FRET buffer solution (Invitrogen, Product #PR3756B). Product formation is detected by way of time-resolved fluorescence resonance energy transfer (TR-FRET), which occurs when the phosphorylated substrate and labeled antibody are in close proximity due to phospho-specific binding. Enzymatic activity is measured as an increase in TR-FRET signal using a Perkin Elmer Envision plate reader.
Compound activity is tested in 10 point dose curves starting at the highest final concentration of 10 uM. They are serially diluted in 100% DMSO prior to further dilution with assay buffer. […] 8 μL of solution containing 2 nM Tb-anti-p4E-BP1 antibody & 10 mM EDTA diluted TR-FRET buffer is then added and incubated for 30 minutes to stop the reaction. The plate is scanned with the Envision plate reader. Ki values are calculated in Assay Explorer using the Morrison ATP-competitive tight binding equation for Ki apparent determination.
(In general: Time-resolved FRET reads energy transfer from a long-lived donor to a nearby acceptor.)

The subject of another experiment is PC3 cells. Briefly: In vitro cell proliferation assay. The class given is cell-based, human. To be noted: values tied to compounds by order of Table 1. Here is the method: c. In Vitro Cell Proliferation Assay Efficacy of Formula I compounds were measured by a cell proliferation assay employing the following protocol: 1. An aliquot of 20 μl of cell culture containing about 10^3 cells (PC3 or MDAMB361.1) in medium was deposited in each well of a 384-well, opaque-walled plate. 2. Control wells were prepared containing medium and without cells; Cells were allowed to settle overnight. 3. The compound was added to the experimental wells and incubated for 3 days. 4. The plates were equilibrated to room temperature for approximately 30 minutes. 5. A volume of CellTiter-Glo Reagent equal to the volume of cell culture medium present in each well was added. […] The contents were mixed for 2 minutes on an orbital shaker to induce cell lysis. 7. The plate was incubated at room temperature for 20 minutes to stabilize the luminescence signal. 8. Luminescence was recorded and reported in graphs as RLU=relative luminescence units. Alternatively, cells were seeded at optimal density in a 96 well plate and incubated for 4 days in the presence of test compound. Alamar BlueTM was subsequently added to the assay medium, and cells were incubated for 6 h before reading at 544 nm excitation, 590 nm emission. EC50 values were calculated using a sigmoidal dose response curve fit.

The mark [2] stands for this setting: Homo sapiens, PC-3, with PC3 cells.

Sequence of mTOR enzyme (mTOR(1360-2549)+GBL) (P42345 1360-2549, species assumed): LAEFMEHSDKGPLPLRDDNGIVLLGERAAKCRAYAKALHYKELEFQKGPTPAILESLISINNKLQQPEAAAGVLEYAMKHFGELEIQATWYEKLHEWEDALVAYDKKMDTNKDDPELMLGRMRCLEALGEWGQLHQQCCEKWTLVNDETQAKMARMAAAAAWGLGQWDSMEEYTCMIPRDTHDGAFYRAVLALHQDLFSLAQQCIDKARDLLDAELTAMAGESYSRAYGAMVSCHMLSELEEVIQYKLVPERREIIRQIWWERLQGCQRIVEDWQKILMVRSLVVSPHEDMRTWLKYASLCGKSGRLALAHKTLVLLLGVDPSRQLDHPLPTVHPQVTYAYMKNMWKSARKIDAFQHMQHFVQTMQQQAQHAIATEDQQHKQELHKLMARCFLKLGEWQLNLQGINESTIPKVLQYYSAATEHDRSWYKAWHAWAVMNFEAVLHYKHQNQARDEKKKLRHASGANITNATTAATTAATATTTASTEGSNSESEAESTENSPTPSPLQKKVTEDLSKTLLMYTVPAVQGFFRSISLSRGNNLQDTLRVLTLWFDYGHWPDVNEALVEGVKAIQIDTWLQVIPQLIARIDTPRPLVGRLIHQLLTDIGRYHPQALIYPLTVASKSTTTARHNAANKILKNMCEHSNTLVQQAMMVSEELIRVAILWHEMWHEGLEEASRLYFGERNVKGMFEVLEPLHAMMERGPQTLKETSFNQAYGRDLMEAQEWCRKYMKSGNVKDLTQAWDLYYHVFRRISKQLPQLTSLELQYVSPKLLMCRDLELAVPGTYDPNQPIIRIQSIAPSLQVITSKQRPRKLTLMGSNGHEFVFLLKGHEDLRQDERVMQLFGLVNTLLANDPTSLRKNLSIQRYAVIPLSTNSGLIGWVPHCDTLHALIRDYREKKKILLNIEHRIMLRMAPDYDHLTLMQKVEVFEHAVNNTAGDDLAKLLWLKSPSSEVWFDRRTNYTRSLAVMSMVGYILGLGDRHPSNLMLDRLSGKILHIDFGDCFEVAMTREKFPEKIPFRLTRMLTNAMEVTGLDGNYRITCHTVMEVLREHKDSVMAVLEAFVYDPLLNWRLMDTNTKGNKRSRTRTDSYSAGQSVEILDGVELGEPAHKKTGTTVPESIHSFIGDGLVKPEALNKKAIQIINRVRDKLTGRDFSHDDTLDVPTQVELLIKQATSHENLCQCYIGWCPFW
Sequence of mTOR enzyme (mTOR(1360-2549)+GBL) (Q9BVC4 whole entry partner, species assumed): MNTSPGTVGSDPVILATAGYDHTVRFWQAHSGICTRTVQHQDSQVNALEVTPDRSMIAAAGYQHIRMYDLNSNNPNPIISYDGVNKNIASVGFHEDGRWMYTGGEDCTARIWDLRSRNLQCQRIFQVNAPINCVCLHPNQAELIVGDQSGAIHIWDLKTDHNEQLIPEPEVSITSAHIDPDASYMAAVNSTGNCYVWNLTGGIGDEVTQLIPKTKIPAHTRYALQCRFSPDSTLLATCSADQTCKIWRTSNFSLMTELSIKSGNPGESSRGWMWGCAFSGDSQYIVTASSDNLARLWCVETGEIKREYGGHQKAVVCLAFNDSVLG

With `CCNC(=O)Nc1ccc(-c2nc(N3CCOC[C@@H]3C)c3c(n2)C(C)(CCn2ccnc2)OC3)cc1` (single isomer, unassigned) [Example 80 es (R)], in experiment [1], the Ki (as a rule, the dissociation constant of the complex between target and ligand, obtained from inhibition or displacement) was determined as 9 nM. Moreover, in the experiment on PC3 cells (setting [2]), the EC50 (commonly the concentration needed to bring the measured effect to its halfway point) worked out at 454 nM.
As for `CCNC(=O)Nc1ccc(-c2nc(N3CCOC[C@@H]3C)c3c(n2)C(C)(CCn2ccnc2)OC3)cc1` (single isomer, unassigned) [Example 80 es (S)], the Ki in experiment [1] was found to be 2 nM. The compound also yielded an EC50 with PC3 cells (with PC3 cells) of 316 nM.
In the case of `CCNC(=O)Nc1ccc(-c2nc(N3CCOC[C@@H]3C)c3c(n2)C(C)(CCn2ccnc2C)OC3)cc1` (single isomer, unassigned) [Example 81 et (S)], the Ki in experiment [1] was 7 nM. The midpoint of the response in the experiment with PC3 cells (setting [2]), the EC50, lay at 402 nM.
The like results for `O=C(Nc1ccc(-c2nc3c(c(N4[C@@H]5CC[C@H]4COC5)n2)CCCO3)cc1)NC1COC1` [1-(4-(4-((1R,5S)-3-oxa-8-azabicyclo[3.2.1]octan-8-yl)-6,7-dihydro-5H-pyrano[2,3-d]pyrimidin-2-yl)phenyl)-3-(oxetan-3-yl)urea] were, in that order, 5 nM and 238 nM.
As for `CCNC(=O)Nc1ccc(-c2nc3c(c(N4[C@@H]5CC[C@H]4COC5)n2)CCCO3)cc1` [1-(4-(4-((1R,5S)-3-oxa-8-azabicyclo[3.2.1]octan-8-yl)-6,7-dihydro-5H-pyrano[2,3-d]pyrimidin-2-yl)phenyl)-3-ethylurea], the Ki in experiment [1] turned out to be 1 nM. The compound also showed an EC50 with PC3 cells (setting [2]) of 108 nM.
In the case of `CCNC(=O)Nc1ccc(-c2nc3c(c(N4CCOC[C@@H]4C)n2)COC(COCc2ccccc2)C3)cc1` (stereo partly drawn) [1-(4-(7-(benzyloxymethyl)-4-((S)-3-methylmorpholino)-7,8-dihydro-5H-pyrano[4,3-d]pyrimidin-2-yl)phenyl)-3-ethylurea], the Ki in experiment [1] stood at 16 nM. It took 585 nM to reach a half-maximal effect in the experiment with PC3 cells (setting [2]) (EC50).
The like results for `CCNC(=O)Nc1ccc(-c2nc3c(c(N4CCOCC4)n2)COC(c2ccccn2)C3)cc1` (stereo not shown) [1-ethyl-3-(4-(4-morpholino-7-(pyridin-2-yl)-7,8-dihydro-5H-pyrano[4,3-d]pyrimidin-2-yl)phenyl)urea] were, in that order, 27 nM and 914 nM.
In the experiment with PC3 cells (setting [2]), `CCNC(=O)Nc1ccc(-c2nc3c(c(N4CCOC[C@@H]4C)n2)COC(CO)C3)cc1` (stereo partly drawn) [1-ethyl-3-(4-(7-(hydroxymethyl)-4-((S)-3-methylmorpholino)-7,8-dihydro-5H-pyrano[4,3-d]pyrimidin-2-yl)phenyl)urea] gave an EC50 of 445 nM.
Turning to `CCNC(=O)Nc1ccc(-c2nc(N3CCOC[C@@H]3C)c3c(n2)[C@@](C)(CC(C)O)OC3)cc1` (stereo partly drawn) [1-ethyl-3-(4-((7R)-7-(2-hydroxypropyl)-7-methyl-4-((S)-3-methylmorpholino)-5,7-dihydrofuro[3,4-d]pyrimidin-2-yl)phenyl)urea], the inhibition constant Ki in experiment [1] came out at 2 nM. This compound returned an EC50 in the experiment with PC3 cells (setting [2]) of 39 nM.
The like results for `CCNC(=O)Nc1ccc(-c2nc(N3CCOC[C@@H]3C)c3c(n2)[C@](C)(CC(C)O)OC3)cc1` (stereo partly drawn) [1-ethyl-3-(4-((7S)-7-(2-hydroxypropyl)-7-methyl-4-((S)-3-methylmorpholino)-5,7-dihydrofuro[3,4-d]pyrimidin-2-yl)phenyl)urea] were, in that order, 2 nM and 25 nM.
The like results for `C[C@H]1COCCN1c1nc(-c2ccc(Nc3nccc(=O)[nH]3)cc2)nc2c1COC(CO)C2` (stereo partly drawn) [2-(4-(7-(hydroxymethyl)-4-((S)-3-methylmorpholino)-7,8-dihydro-5H-pyrano[4,3-d]pyrimidin-2-yl)phenylamino)pyrimidin-4(3H)-one] were, in that order, 4 nM and 2800 nM.
The like results for `CCNC(=O)Nc1ccc(-c2nc3c(c(N4CCOC[C@@H]4C)n2)COC(C)(C)C3)cc1` [(S)-1-(4-(7,7-dimethyl-4-(3-methylmorpholino)-7,8-dihydro-5H-pyrano[4,3-d]pyrimidin-2-yl)phenyl)-3-ethylurea] were, in that order, 3 nM and 50 nM.
`CC[C@H]1COCCN1c1nc(-c2ccc(NC(=O)NC3COC3)cc2)nc2c1COCC2` [Example 6, (S)-1-(4-(4-(3-ethylmorpholino)-7,8-dihydro-5H-pyrano[4,3-d]pyrimidin-2-yl)phenyl)-3-(oxetan-3-yl)urea] came in with an EC50 in the experiment with PC3 cells (setting [2]) of 180 nM.
The same measure, in the same setting: with `C=CC[C@@]1(C)OCc2c(N3CCOCC3)nc(-c3ccc(NC(=O)NCC)cc3)nc21` [Example 73 eb (R), (R)-1-(4-(7-allyl-7-methyl-4-morpholino-5,7-dihydrofuro[3,4-d]pyrimidin-2-yl)phenyl)-3-ethylurea] the figure was 96.1 nM; with `C=CC[C@@]1(C)OCc2c(N3C[C@H]4CC[C@@H](C3)O4)nc(-c3ccc(NC(=O)NCC)cc3)nc21` [Example 74 eh (R), 1-(4-((R)-7-allyl-4-((1R,5S)-8-oxa-3-azabicyclo[3.2.1]octan-3-yl)-7-methyl-5,7-dihydrofuro[3,4-d]pyrimidin-2-yl)phenyl)-3-ethylurea], 95 nM.
Still for that read-out and setting: with `C=CC[C@]1(C)OCc2c(N3C[C@H]4CC[C@@H](C3)O4)nc(-c3ccc(NC(=O)NCC)cc3)nc21` [Example 74 eh (S), 1-(4-((S)-7-allyl-4-((1R,5S)-8-oxa-3-azabicyclo[3.2.1]octan-3-yl)-7-methyl-5,7-dihydrofuro[3,4-d]pyrimidin-2-yl)phenyl)-3-ethylurea] the figure was 153 nM.
In the case of `CCC[C@@]1(C)OCc2c(N3C[C@H]4CC[C@@H](C3)O4)nc(-c3ccc(NC(=O)NCC)cc3)nc21` [Example 74 ej (R), 1-(4-((R)-4-((1R,5S)-8-oxa-3-azabicyclo[3.2.1]octan-3-yl)-7-methyl-7-propyl-5,7-dihydrofuro[3,4-d]pyrimidin-2-yl)phenyl)-3-ethylurea], in the experiment on PC3 cells (setting [2]), the EC50 stood at 19 nM.
In the experiment on PC3 cells (setting [2]), `CCC[C@]1(C)OCc2c(N3C[C@H]4CC[C@@H](C3)O4)nc(-c3ccc(NC(=O)NCC)cc3)nc21` [Example 74 ej (S), 1-(4-((S)-4-((1R,5S)-8-oxa-3-azabicyclo[3.2.1]octan-3-yl)-7-methyl-7-propyl-5,7-dihydrofuro[3,4-d]pyrimidin-2-yl)phenyl)-3-ethylurea] came in with an EC50 of 51 nM.
For the compound `CCNC(=O)Nc1ccc(-c2nc(N3CCOC[C@@H]3C)c3c(n2)[C@@](C)(CCCO)OC3)cc1` [Example 75 el (R), 1-ethyl-3-(4-((R)-7-(3-hydroxypropyl)-7-methyl-4-((S)-3-methylmorpholino)-5,7-dihydrofuro[3,4-d]pyrimidin-2-yl)phenyl)urea], in the experiment with PC3 cells (setting [2]), the EC50 was determined as 322 nM.
The same measure, in the same setting: the figure for `CCNC(=O)Nc1ccc(-c2nc(N3CCOC[C@@H]3C)c3c(n2)[C@](C)(CCCO)OC3)cc1` [Example 75 el (S), 1-ethyl-3-(4-((S)-7-(3-hydroxypropyl)-7-methyl-4-((S)-3-methylmorpholino)-5,7-dihydrofuro[3,4-d]pyrimidin-2-yl)phenyl)urea] is 62 nM; for `CCNC(=O)Nc1ccc(-c2nc(N3CCOCC3C)c3c(n2)C(C)(CCOc2ccccc2)OC3)cc1` (stereo not shown) [Example 91 ft^1, 1-ethyl-3-(4-(7-methyl-4-(3-methylmorpholino)-7-(2-phenoxyethyl)-5,7-dihydrofuro[3,4-d]pyrimidin-2-yl)phenyl)urea] it is 297 nM.
For `CCNC(=O)Nc1ccc(-c2nc(N3CCOC[C@@H]3C)c3c(n2)[C@](C)(CCOc2ccncc2)OC3)cc1` [Example 92 fu^1], the EC50 in the experiment on PC3 cells (setting [2]) came to 238 nM.
Compound `CCNC(=O)Nc1ccc(-c2nc3c(c(N4C[C@H]5CC[C@@H](C4)O5)n2)COC3)cc1` [Example 99, 1-(4-(4-(8-oxa-3-azabicyclo[3.2.1]octan-3-yl)-5,7-dihydrofuro[3,4-d]pyrimidin-2-yl)phenyl)-3-ethylurea] gave an EC50 in the experiment with PC3 cells (setting [2]) of 154 nM.
`CC[C@H]1COCCN1c1nc(-c2ccc(N)nc2)nc2c1CCCO2` [Example 129, (S)-5-(4-(3-ethylmorpholino)-6,7-dihydro-5H-pyrano[2,3-d]pyrimidin-2-yl)pyridin-2-amine]: the Ki in experiment [1] was determined as 11 nM.
With `Nc1ncc(-c2nc3c(c(N4C[C@H]5CC[C@@H](C4)O5)n2)CCCO3)cn1` [Example 131, 5-(4-((1R,5S)-8-oxa-3-azabicyclo[3.2.1]octan-3-yl)-6,7-dihydro-5H-pyrano[2,3-d]pyrimidin-2-yl)pyrimidin-2-amine], in experiment [1], the Ki was determined as 106 nM.
Same read-out and setting: the figure for `Nc1ncc(-c2nc3c(c(N4[C@@H]5CC[C@H]4COC5)n2)CCCO3)cn1` [Example 133, 5-(4-((1R,5S)-3-oxa-8-azabicyclo[3.2.1]octan-8-yl)-6,7-dihydro-5H-pyrano[2,3-d]pyrimidin-2-yl)pyrimidin-2-amine] is 97 nM.
